Patent US20250352500A1, “USE OF PHENOLIC ACIDS DERIVATIVES IN TREATING ISCHEMIC STROKE” (LANZHOU UNIVERSITY, priority 2022, published 2025)

Legend:
Assay type in all cases: in vivo, male C57/BL mice
TNF-α [1] = experiment: ELISA of TNF-α in brain homogenate; conditions: 72 h, three days of administration, compound 2 100 mg/kg, compound 1 50 mg/kg
Protocol: (§1) Grouping and administration method: Male C57/BL mice weighing 23±1 g were randomly divided into sham operation group (SHAM), model group (MCAO), compound 2 group (100 mg/kg), and compound 1 group (50 mg/kg), with 10 mice in each group. Mice in the SHAM group underwent vascular isolation, but no […] was administered, and no treatment was given before or after surgery. The model group mice were constructed with MCAO models and were not treated before and after surgery. The treatment group was treated with compound 2 or compound 1 on the basis of the model group. Mice with a neurological score of 0 after reperfusion and those that died before 72 hours post-surgery were excluded. […]
(§2) To investigate the effect of compounds on the expression of inflammatory factors after ischemia-reperfusion, this study used immunofluorescence experiments to observe the expression of TNF-α, IL-1β, IL-6, iNOS, and COX2 proteins in brain tissue. […] The concentrations of TNF-α, IL-1β, and IL-6 in brain homogenate were detected by enzyme-linked immunosorbent assay (ELISA), and the expression level of TNF-α protein in brain tissue was detected by Western blot.
(§3) After 72 hours of ischemia-reperfusion, the expression levels of inflammatory factors TNF-α, IL-1β, and IL-6 in the mouse brain homogenate were detected.

iba1 = iba1 immunofluorescence in brain tissue (microglia); conditions: 72 h ischemia-reperfusion, three days of administration; compound 2 100 mg/kg, compound 1 50 mg/kg; MCAO group 303±23; mean±SEM, n=3
Protocol: as §1
Microglia are resident phagocytic cells in the nervous system and are the primary defense system for stress and injury in central nervous cells. […] To investigate whether the compound has an effect on the activation and proliferation of microglia in the ischemia-reperfusion model, this study used immunofluorescence experiments to detect the fluorescence expression of iba1 in the brain tissues of the sham operation group (SHAM), model group (MCAO), compound 2 group, and compound 1 group. Then, the expression level of iba1 in microglia in brain tissue was detected by Western blot. […]

GFAP [2] = experiment: GFAP immunofluorescence in brain tissue (astrocytes); conditions: 72 h ischemia-reperfusion, three days of administration; compound 2 100 mg/kg, compound 1 50 mg/kg; MCAO group 481±67; mean±SEM, n=3
Protocol: as §1
To investigate whether compound 2 has an effect on the activation and proliferation of astrocytes during ischemia-reperfusion, this study used immunofluorescence experiments to observe and detect the fluorescence expression of GFAP in brain tissues from the sham operation group, model group, compound 2 group, and compound 1 group. […] After 72 hours of ischemia-reperfusion, the activation and proliferation of GFAP protein in astrocytes in the brain region were analyzed by immunofluorescence staining. […]

GFAP [3] = experiment: GFAP protein Western blot in brain tissue; conditions: for GFAP protein expression reduced compared with MCAO group: 72 h ischemia-reperfusion, three days of administration, compound 2 100 mg/kg, compound 1 50 mg/kg
Protocol: (§4) Grouping and administration method: Male C57/BL mice weighing 23±1 g were randomly divided into sham operation group (SHAM), model group (MCAO), compound 2 group (100 mg/kg), and compound 1 group (50 mg/kg), with 10 mice in each group. Mice in the SHAM group underwent vascular isolation, but no […] was administered, and no treatment was given before or after surgery. The model group mice were constructed with MCAO models and were not treated before and after surgery. The treatment group was treated with compound 2 or compound 1 on the basis of the model group. Mice with a neurological score of 0 after reperfusion and those that died before 72 hours post-surgery were excluded. The administration time for animal behavior tests was seven times at 0 h, 1 day, 2 days, 3 days, 4 days, 5 days, and 6 days after reperfusion, while the administration time for other experiments was three times at 0 h, 1 day, and 2 days after reperfusion. The drug was administered through the tail vein, and the sham operation group and model group were given equal amounts of saline.
After 72 hours of ischemia-reperfusion, the protein expression level of GFAP, a marker of astrocytes in brain tissue, was detected with Western blot. The representative Western blot (WB) images of GFAP protein expression in the brain tissues of the sham operation group (SHAM), model group (MCAO), compound 2 group, and compound 1 group are shown in FIG. 6A, and the quantitative statistical results are shown in FIG. 6B. […] In this experiment, β-actin was used as an internal reference protein. n=3, data are mean±SEM, analyzed using one-way ANOVA and Tukey's HSD test. *P<0.05, **P<0.01, ***P<0.001. ^#P<0.05, ^##P<0.01, ^###P<0.001. * indicates comparison with the SHAM group, # indicates comparison with the compound 2 group.

IL-1β = experiment: ELISA of IL-1β in brain homogenate; conditions: 72 h, three days of administration, compound 2 100 mg/kg, compound 1 50 mg/kg
Protocol: as §1, §2, §3

[4] = test system: TNF-α, IL-1β, IL-6, iNOS, and COX2; experiment: Immunofluorescence of pro-inflammatory factors in brain tissue; conditions: 72 h, P<0.001; for Number of pro-inflammatory factor-positive cells compared with MCAO group: three days of administration, compound 2 100 mg/kg, compound 1 50 mg/kg
Protocol: as §4
To investigate the effect of compounds on the expression of inflammatory factors after ischemia-reperfusion, this study used immunofluorescence experiments to observe the expression of TNF-α, IL-1β, IL-6, iNOS, and COX2 proteins in brain tissue. RT-qPCR experiments were used to detect the mRNA gene expression of pro-inflammatory factors TNF-α, IL-1β, IL-6, iNOS, and COX2 in the sham operation group, model group, compound 2 group, and compound 1 group. The concentrations of TNF-α, IL-1β, and IL-6 in brain homogenate were detected by enzyme-linked immunosorbent assay (ELISA), and the expression level of TNF-α protein in brain tissue was detected by Western blot.
After 72 hours of ischemia-reperfusion, the expression changes of inflammatory factors such as TNF-α, IL-1β, IL-6, iNOS, and COX2 in brain regions were analyzed by immunofluorescence staining. […]

TNF-α [5] = experiment: TNF-α protein Western blot in brain tissue; conditions: 72 h; for TNF-α protein expression reduced compared with MCAO group: three days of administration, compound 2 100 mg/kg, compound 1 50 mg/kg, P<0.001
Protocol: as §4, §2
After 72 hours of ischemia-reperfusion, the expression level of TNF-α protein in brain tissue was detected by Western blot. […] In this experiment, β-actin was used as an internal reference protein. n=3, data are presented as mean±SEM, analyzed with one-way ANOVA, and subjected to Tukey's HSD test. *P<0.05, **P<0.01, ***P<0.001. ^#P<0.05, ^##P<0.01, ^###P<0.001. * indicates a comparison with the SHAM group, ^# indicates a comparison with the compound 2 group.

O=C(O)c1cc(O)ccc1O [compound 1]
Decrease in TNF-α expression compared with MCAO group (TNF-α [1]): reduced to varying degrees | Number of iba1-positive cells (iba1): 200±12 /mm^2 | Number of GFAP-positive cells (GFAP [2]): 327±50 /mm^2 | GFAP protein expression reduced compared with MCAO group (GFAP [3]): 25±10% | Decrease in IL-1β expression compared with MCAO group (IL-1β): reduced to varying degrees | Number of pro-inflammatory factor-positive cells compared with MCAO group [4]: significantly decreased | TNF-α protein expression reduced compared with MCAO group (TNF-α [5]): 20±10%

O=C(O)c1cc(OP(=O)(O)O)ccc1OP(=O)(O)O [compound 2]
Decrease in TNF-α expression compared with MCAO group (TNF-α [1]): 40±10% | Number of iba1-positive cells (iba1): 148±40 /mm^2 | Number of GFAP-positive cells (GFAP [2]): 195±45 /mm^2 | GFAP protein expression reduced compared with the compound 1 group (GFAP [3]; 72 h, compound 2 100 mg/kg vs compound 1 50 mg/kg, P<0.05): 45±10% | GFAP protein expression reduced compared with MCAO group (GFAP [3]): 43±12% | Decrease in IL-1β expression compared with MCAO group (IL-1β): 32±9% | Density of pro-inflammatory factor-positive cells compared with the compound 1 group ([4]; compound 2 100 mg/kg vs compound 1 50 mg/kg): significantly reduced | Number of pro-inflammatory factor-positive cells compared with MCAO group [4]: significantly decreased | TNF-α protein expression decreased compared with the compound 1 group (TNF-α [5]; compound 2 100 mg/kg vs compound 1 50 mg/kg, P<0.05): 31±20% | TNF-α protein expression reduced compared with MCAO group (TNF-α [5]): 40±12%
